Among the data in PubChem BioAssay (NCI) are TGI and GI50 values, retold here.

In general, TGI refers to the concentration giving total growth inhibition. Usually GI50 stands for the concentration giving 50% growth inhibition.

Holding throughout (experiment): DTP human tumour cell line panel, 48 h
Test [1] has as its system RXF 393 renal.
The test system of test [2] is SF-268 CNS.
For test [3], the system named is MOLT-4 leukemia.
The subject of test [4] is MALME-3M melanoma.
For test [5], the system named is TK-10 renal.
The test system of test [6] is SK-MEL-28 melanoma.
The subject of test [7] is A549 NSCLC.
Test [8] relates to LOX IMVI melanoma.
The subject of test [9] is SW-620 colon.
Test [10] deals with SK-OV-3 ovarian.

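Exposure lasted 48 hours, with cells grown in 96-well plates and compounds tested at five concentrations. The concentration for 50% growth inhibition is given as GI50. The concentration for full growth arrest is given as TGI.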

Regarding `Cc1c(C(=O)C/C(=N/NC(=O)C[N+](C)(C)C)C(=O)Nc2ccc(Cl)cc2)[n+](=O)c2ccccc2n1O`, the TGI in test [1], in test [2], in test [3], in [4], in test [5] and in test [6] was > 100 µM each time. The TGI in [7], in [8] and in [9] was > 100 µM in each case.
In the case of `CN(C)CCNC(=O)c1cccc2ccc(-c3ccncc3)nc12`, the TGI in [1] came out at 7.85 µM; in test [2], 21.7 µM; in test [3] it was 1.37 µM; in test [5] it was 5.57 µM; in test [6] it was 17.5 µM; in test [10] it was 6.95 µM. Moreover, the TGI in test [9] was determined as 18.1 µM.
Regarding `Cc1cc2c(cc1Cl)SC1=NN(C)S(=O)N1S2(=O)=O` (stereo unspecified), the GI50 in test [2], in test [3], in test [4], in test [5], in test [6] and in test [7] was > 100 µM each time. In addition, the GI50 in [10], in test [8] and in [9] was > 100 µM throughout. Further, the TGI in test [2], in test [3], in test [4], in test [5], in [6] and in test [7] was > 100 µM each time. Further, the TGI in test [10], in test [8] and in test [9] was > 100 µM in each case.
For `Cc1ccc(NC(=O)CC(=O)n2nc(C)c(N=Nc3ccccc3C(=O)O)c2C)cc1`, the TGI in test [2], in test [3], in [4], in test [5], in test [6] and in [7] was > 100 µM each time. Further, the TGI in [10], in [8] and in [9] was > 100 µM in each case.
For `CCCCCCCCn1ccc2cc(NC(=O)Cn3cc(CN4CCCC4)nn3)ccc21`, the GI50 in test [1] was 1.6 µM; in [2], 1.78 µM; in [3], 2.41 µM; in test [4], 1.52 µM; in [5], 1.71 µM; in test [7] it was 1.83 µM. Further, the values for the GI50 in [10], in test [8] and in [9] were 1.81 µM, 1.62 µM and 1.86 µM, respectively. The TGI in test [1] was 3.37 µM; in [2] it was 3.57 µM; in [3], 5.9 µM; in test [4], 2.89 µM; in [5] it was 3.3 µM; in [7] it was 3.63 µM. Besides, the TGI in test [10] is 3.51 µM; in test [8] it was 3.01 µM; in [9] it was 3.6 µM.
`O=C(CC1(O)C(=O)Nc2ccccc21)c1ccncc1` (stereo unspecified): the TGI in test [1], in [2], in test [3], in [6], in [7] and in test [10] was > 100 µM throughout. The TGI in test [8] and in test [9] was > 100 µM each time.
Consider `Cc1cc(-c2cnn3c(NCC4CC(C)(O)C4)cc(Oc4cccnc4)nc23)ccc1C(=O)NC1CC1` (stereo unspecified), for which the GI50 in [1] is 1.55 µM; in test [2], 8.72 µM; in [5] it was 1.98 µM; in [7] it was 3.49 µM; in test [10] it was 2.69 µM; in test [8] it was 0.395 µM. Besides, the GI50 in test [9] is 0.591 µM. Moreover, the TGI in [1], in test [2], in test [5], in [7], in test [10] and in test [8] was > 100 µM each time. In test [9], the TGI is > 100 µM.
With `CC(C)(C)c1cc(CCC(=O)Nc2ccc(Cl)cc2)nc(NC#N)n1`, the TGI in [2], in test [3], in test [5], in test [6], in [7] and in test [10] was > 100 µM throughout. Further, the TGI in [8] and in [9] was > 100 µM in each case.
Consider `Nc1c(-c2ccc(Cl)cc2)[n+]([O-])c2ccccc2[n+]1[O-]`, for which the TGI in [2], in test [3], in test [4], in test [5], in test [6] and in test [7] was > 100 µM throughout. Further, the TGI in test [10], in test [8] and in test [9] was > 100 µM throughout.
For the compound `O=c1cc(-c2ccccc2)oc2cc(OC/C(=N/O)c3ccccc3)ccc12`, the GI50 in test [1] is 16 µM; in test [2], 11.5 µM; in [3], > 50 µM; in [5], 7.18 µM; in [6] it was 12.3 µM; in [7] it was 31.7 µM. Besides, the GI50 was 12.1 µM in [10], 30.5 µM in [8] and > 50 µM in [9]. Moreover, the TGI in test [1] is > 50 µM; in test [2] it was 31 µM; in test [3], > 50 µM; in [5] it was 19.9 µM; in test [6] it was 32.2 µM; in test [7], > 50 µM. Besides, the TGI in [10] was 32.5 µM; in test [8], > 50 µM; in test [9], > 50 µM.
Turning to `O=C(O)CCSC(=O)Nc1ccc([N+](=O)[O-])cc1`, the TGI in test [1], in test [2], in test [3], in test [5], in [6] and in [7] was > 100 µM in each case. In addition, the TGI in test [8] and in test [9] was > 100 µM each time.
With `COCCCNC(=O)C1C(=O)C(=O)N(CCCOC)C1=O` (stereo unspecified), the TGI in [2], in test [3], in [4], in test [5], in [6] and in test [7] was > 100 µM in each case. For the same compound, the TGI in test [10], in test [8] and in test [9] was > 100 µM throughout.
Turning to `NC12CC3CC(C1)CC(C(=O)O)(C3)C2`, the TGI in test [2], in [3], in test [5], in test [6], in test [7] and in [10] was > 100 µM in each case. In addition, the TGI in test [8] and in test [9] was > 100 µM throughout.
Take `CCOC1Oc2ccc(C)cc2C(=O)/C1=C\Nc1ccc(C(N)=O)cc1` (stereo unspecified): the GI50 in test [1] was 22.9 µM; in test [2] it was 44 µM; in [3], 46.2 µM; in test [5] it was 15.7 µM; in test [6], 51.7 µM; in [7], 33.3 µM. Further, the GI50 in [10] is 21.1 µM; in test [8], 13.9 µM; in test [9], 15.2 µM. The TGI in [1] was 49 µM; in [2] it was > 100 µM; in [3], > 100 µM; in test [5], 36 µM; in test [6], > 100 µM; in test [7] it was > 100 µM. For the same compound, the TGI was > 100 µM in test [10], 34.4 µM in [8] and 51.2 µM in test [9].
Turning to `N#C/C(=C\c1ccc2ccccc2c1)c1ccccc1`, the TGI is 65 µM in test [1]; > 100 µM in [2]; 94.5 µM in test [3]; 75.7 µM in test [5]; > 100 µM in test [6]; 70.7 µM in test [10]. For the same compound, the TGI in test [8] and in test [9] was > 100 µM throughout.
Take `COc1ccc2c(c1)[n+](=O)c(C(=O)C/C(=N/OCCCc1ccccc1)C(=O)NC13CC4CC(CC(C4)C1)C3)c(C)n2[O-]`: the TGI in [2], in [3], in test [4], in test [5], in test [6] and in [7] was > 100 µM in each case. Further, the TGI in [10], in [8] and in test [9] was > 100 µM each time.
Consider `O=C(CCc1cc(-c2ccccc2)nc(=S)[nH]1)N(Cc1ccccc1)Cc1ccccc1`, for which the TGI in test [2], in test [3], in test [4], in test [5], in [7] and in [10] was > 100 µM in each case. Moreover, the TGI in test [8] and in test [9] was > 100 µM throughout.
Take `O=C(CC1C(=O)NN(c2ccc(Br)cc2)C1=O)c1cc(O)ccc1O` (stereo unspecified): the GI50 in test [1] is > 50 µM; in test [2], 29 µM; in test [3], > 50 µM; in [5], 15.5 µM; in [6], 28 µM; in test [7] it was > 50 µM. The GI50 in [8] was 8.3 µM; in [9], 17.9 µM. Further, the TGI in test [1], in test [2], in test [3], in test [5], in test [6] and in test [7] was > 50 µM throughout. The TGI in test [8] is 19.5 µM; in test [9], > 50 µM.
Consider `COc1ccc2nc3c(C(=O)NCCN(C)C)cccc3nc2c1`, for which the TGI in [1] is > 1 µM; in [2] it was 48.5 µM; in test [3], > 100 µM; in test [5] it was 34.3 µM; in [6], 26.1 µM; in [7], > 100 µM. Further, the TGI in [10] came out at 47.4 µM; in [8] it was 17.9 µM; in test [9] it was 81.6 µM.
On to `NC(=O)COC(=O)c1c(Cl)nc2sccn12`, for which the TGI in test [2], in test [3], in test [4], in test [5], in test [6] and in test [7] was > 100 µM each time. Besides, the concentration for total growth inhibition (TGI) in test [10] was > 100 µM; in test [8], > 100 µM; in [9], > 64.7 µM.
On to `O=C(CCN(C(=O)O)S(=O)(=O)c1ccc(NC(=O)c2ccccc2)cc1)NC1CCCCC1`, for which the TGI in [2] is > 100 µM; in [3], 45.9 µM; in test [4], > 100 µM; in [5], > 100 µM; in test [6], > 100 µM; in test [7], > 100 µM. The values for the TGI in test [10], in test [8] and in [9] were > 100 µM, > 100 µM and 33.1 µM, respectively.
In the case of `O=S(=O)(NC1=NCCN1C(=S)SN1CCn2c1nsc2=S)c1cccc(Cl)c1`, the GI50 in test [1] is 4.04 µM; in test [2] it was 20.2 µM; in test [3], 12.8 µM; in test [5], 11.5 µM; in [6], 21.4 µM; in test [7], 30.3 µM. Further, the figures for the GI50 in test [8] and in test [9] were 10.7 µM and 22.9 µM, respectively. Besides, the TGI was 21.6 µM in test [1]; 46.7 µM in test [2]; > 100 µM in [3]; 28.5 µM in test [5]; 39.7 µM in test [6]; 91.2 µM in test [7]. Moreover, the figures for the TGI in [8] and in test [9] were 22.9 µM and > 100 µM, respectively.
In the case of `CCOC(=O)/C(=C\c1ccccc1)C(=O)O`, the TGI in [2], in test [3], in test [4], in test [6], in test [7] and in test [10] was > 100 µM throughout. For the same compound, the TGI in test [8] and in test [9] was > 100 µM in each case.
For `CCCCCCCC(=O)OCC/C=C/C1OC1C1OC(=O)/C=C\C=C\c2nc(oc2C)/C=C(/C)CCC2OC2C1OC(=O)NC(C)=O` (stereo unspecified), the GI50 was 0.0184 µM in test [1]; 0.0401 µM in test [2]; 0.047 µM in [3]; 0.0391 µM in test [5]; 0.0679 µM in test [6]; 0.026 µM in test [7]. Also, the GI50 in test [10] was 0.0643 µM; in test [8] it was 0.0372 µM; in [9], 0.0393 µM. Moreover, the concentration for total growth inhibition (TGI) in [1] amounted to 0.0562 µM; in test [2], 1.74 µM; in test [3], 1.81 µM; in test [5], 0.232 µM; in test [6] it was 0.159 µM; in [7], 2.64 µM. In addition, the TGI in test [10] is 1.33 µM; in [8] it was 0.648 µM; in test [9], 1.07 µM.
